The values below come from ChEMBL document CHEMBL1157539, “Thousands of chemical starting points for antimalarial lead identification” (Nature, 2010).

This test has as its system Plasmodium falciparum. Description: GSK_TCMDC: Inhibition of Plasmodium falciparum 3D7 in whole erythrocytes, using parasite LDH activity as an index of growth. As to conditions: Plasmodium falciparum, 3D7. It is filed as functional, organism-based.
As to `CN(Cc1ccc(-c2ccc(C(F)(F)F)cc2)cc1)C(=O)Cn1c(CCc2cccc(F)c2F)cc(=O)c2ccc(OCC3CCCN3C)cc21` (stereo not given), the XC50 is 1070 nM.

The compound `CCN(CC)C(C)(C)CN(Cc1ccc(-c2ccc(C(F)(F)F)cc2)cc1)C(=O)Cn1c(CCc2cccc(F)c2F)nc(=O)c2ccccc21` came in with an XC50 of 958 nM.

Turning to `COc1ccc(C2N=C(N)N=C(N)N2OCc2ccccc2)cc1OC` (stereo not given), the XC50 was found to be 133 nM.

On to `O=C(Nc1ccc2c(c1)CCC2)c1cnc(N2CCN(c3ccncc3)CC2)c(Cl)c1`, for which the XC50 was 1110 nM.

With `NC1CCCN(Cc2ccc(-c3ccc(-c4nc5ccccc5[nH]4)s3)cc2)C1` (stereo not given), the XC50 was 672 nM.

Turning to `NCC1CCCN1Cc1cccc(-c2ccc(-c3nc4cc(C(F)(F)F)ccc4[nH]3)cc2)c1` (stereo not given), the XC50 amounted to 778 nM.

`CC1(C)CCC(C)(C)c2c1ccc(C1CCN(CCCCNC(=O)c3ccc(-c4ccc(C#N)cc4)cc3)CC1)c2OCC(N)=O` showed an XC50 of 421 nM.

As for `CN1CCN(CCCN(Cc2csc(-c3ccc(CNCc4ccccc4)cc3)n2)C(=O)c2cc(F)cc(F)c2)CC1`, the XC50 is 708 nM.

The compound `Cc1cc(N2Cc3ccccc3C2)nc(Nc2cccc(C#N)c2)n1` registered an XC50 of 172 nM.

For `CCCNCc1c(O)ccc2c(CNCCC)c(O)ccc12`, the XC50 amounted to 597 nM.

`CCc1ccc(CN2CCCCC(NC(=O)c3cc(-c4ccccc4F)cs3)C2)cc1` (stereo not given) displayed an XC50 of 1160 nM.

The compound `CC(C)C[C@H](Nc1ccc(C#N)c2ccccc12)C(=O)N[C@@H]1CCCc2ccccc21` returned an XC50 of 763 nM.

For `CN(CCNCc1ccc(-c2cccc(-c3nc4ccccc4[nH]3)c2)cc1)S(C)(=O)=O`, the XC50 turned out to be 945 nM.

`COc1ccc2ncc(C#N)c(CCN3CCC(NCc4ccc5c(c4)NC(=O)CO5)CC3)c2c1` registered an XC50 of 588 nM.

In turn, `CCN(CC)CCN(Cc1ccc(-c2ccc(C(F)(F)F)cc2)cc1)C(=O)CN1C(CCc2cccc(F)c2F)=NS(=O)(=O)c2ccccc21` returned an XC50 of 237 nM.

`C[C@@H](CNc1ccnc(Nc2ccc3[nH]c(=O)[nH]c3c2)n1)c1ccccc1` had an XC50 of 1100 nM.

With `COC(=O)c1c(C#N)c(OC)cc(O)c1CSC[C@@H](CN1CCCCC1)Nc1nc(-c2ccc([N+](=O)[O-])cc2)cs1`, the XC50 turned out to be 1270 nM.

The compound `CCCNCc1ccc(-c2ccc(CN(CCOC)C(=O)c3ccco3)cc2)nc1` came in with an XC50 of 997 nM.

With `N#Cc1ccc(-c2ccc(C(=O)NCCCCN3CCC(c4cc(Br)c5c(c4OCC(N)=O)CCCC5)CC3)cc2)cc1`, the XC50 amounted to 797 nM.

In the case of `Fc1ccc(Nc2ccnc3cc(-c4cccc(CN5CCCCC5)c4)ccc23)c(Cl)c1`, the XC50 was determined as 31.8 nM.

The compound `O=C(Cn1nc(Br)nc1[N+](=O)[O-])NCC1CCCCC1` yielded an XC50 of 1100 nM.

The compound `O=C(/C=C/c1ccc(C(F)(F)F)cc1)NCCCCCN1CCCN(C(=O)Nc2ccc(Cl)c(C(F)(F)F)c2)CC1` returned an XC50 of 202 nM.

In turn, `N=c1c2c(n(Cc3ccccc3)c3c1CCC3)CCCC2` showed an XC50 of 867 nM.

Take `COc1cc(NC(=O)/C=C/c2cc(F)cc(F)c2F)cc(OCCN2CCC3(CC2)OCCO3)c1`: the XC50 turned out to be 269 nM.

In turn, `Cc1cccc(Nc2nccc(NCC(O)c3cccc(C(F)(F)F)c3)n2)c1` (stereo not given) yielded an XC50 of 514 nM.

`Cc1ccccc1C1CCN(C2CCC(NC(=O)c3cc(-c4ccccc4)oc3C)CC2)CC1` (stereo not given) had an XC50 of 1030 nM.

In turn, `COc1ccc2nc3cc(Cl)ccc3c(NCCCCN3CCNCC3)c2c1` displayed an XC50 of 183 nM.

`CC(C)(C)c1ccc(NC(=O)c2ccc(CN3CCCN(CC4CCCCC4)CC3)cc2)cc1` yielded an XC50 of 542 nM.

With `O=C(Cc1c[nH]cn1)Nc1ccc(-c2ccc(-c3nc4cc(F)ccc4[nH]3)cc2)cc1`, the XC50 amounted to 731 nM.

For the compound `Cn1nc(-c2ccc(NC(=O)Nc3cc(C(F)(F)F)ccc3F)c(F)c2)c2cnc(NCCCn3ccnc3)nc21`, the XC50 is 736 nM.

On to `Cc1cc(=NN=Cc2cccc(Cl)c2)c2ccc(F)cc2[nH]1`, for which the XC50 was determined as 240 nM.

Regarding `CCC[C@@H]([C@@H](CC(C)C)C(=O)N[C@@H](CCCNc1nccc(C(F)(F)F)n1)C(=O)Nc1nccs1)N(O)C=O`, the XC50 is 373 nM.

The compound `CNC(=O)Cc1ccc(C(=O)Nc2cccc(-c3ccc(-c4nc5cccc(C)c5[nH]4)s3)c2)cc1` came in with an XC50 of 632 nM.

Regarding `N=c1n(Cc2ccc(Cl)cc2)c2ccccc2n1CC(O)c1ccc(Cl)c(Cl)c1` (stereo not given), the XC50 was 677 nM.

In turn, `O=S(=O)(NCCN1CCCC1)c1ccc(-c2cccc(CNCc3ccc(F)cc3)c2)s1` yielded an XC50 of 764 nM.

As for `COc1ccc(Cc2c(Cl)nc3nc(N)nc(N)c3c2C)cc1`, the XC50 worked out at 1090 nM.

In the case of `N#Cc1cccc(Nc2nccc(Nc3ccc(Oc4ccccc4)cc3)n2)c1`, the XC50 is 830 nM.

Regarding `Cc1c(Oc2ccc(-n3ccnc3)cc2)ncnc1N1CCC2(CC1)CNCc1ccccc12`, the XC50 is 887 nM.

As to `CCCNC(=O)CN1CN(c2ccccc2)C2(CCN(C(=O)c3ccc(C(C)(C)C)cc3)CC2)C1=O`, the XC50 amounted to 466 nM.

In the case of `Cc1cc(Nc2ccncc2)n2nc(C)c(-c3ccccc3Cl)c2n1`, the XC50 was 654 nM.

`CCCCCCN1CCC(NCc2cccc([N+](=O)[O-])c2)CC1`: the XC50 stood at 668 nM.

`CCCCCNc1nc2nc(N)nc(N)c2nc1-c1ccccc1` returned an XC50 of 954 nM.

As to `Cc1ccc(Nc2nccc(Nc3ccc4c(C)n[nH]c4c3)n2)cc1F`, the XC50 was determined as 785 nM.

Regarding `COc1ccc(CNCc2ccc(-c3cccc(-c4nc5cc(F)ccc5[nH]4)c3)cc2)cc1`, the XC50 amounted to 202 nM.

`O=C(/C=C/c1ccc(C(F)(F)F)cc1)NCCCCCN1CCCN(C(=O)Nc2cccc(Cl)c2)CC1` gave an XC50 of 992 nM.

In turn, `Cc1cc(N[C@@H](Cc2ccccc2)C(=O)NCc2cccc(F)c2)nc(NCC2CCCCC2)n1` registered an XC50 of 855 nM.

As for `Cc1cc2ncn(-c3nccc(NCc4cccnc4)n3)c2cc1C`, the XC50 was found to be 664 nM.

`OC(COc1ccccc1-c1nc2ccccc2o1)CN1CCCN(CCc2ccccc2)CC1` (stereo not given) gave an XC50 of 758 nM.

The compound `CC1(C)N=C(N)N=C(N)N1OCCCOc1cccc(C(=O)O)c1` had an XC50 of 39.9 nM.

`CC(=O)Nc1ccc(Nc2ncc([N+](=O)[O-])c(Nc3ccccc3C(N)=O)n2)cc1` displayed an XC50 of 366 nM.

On to `COc1c(Br)cc(Br)cc1-c1ccc(CN2C3CCCC2CCC3)[nH]1`, for which the XC50 came out at 1110 nM.

Compound `CC(C)(C)c1ccc(-c2csc(NC(=O)CC(c3ccccc3)c3ccccc3)n2)cc1` gave an XC50 of 1150 nM.

Take `Cc1c(C)c2c(c(C)c1O)CC[C@](C)(C(=O)N1CCC(CN3CCC(c4c[nH]c5ccccc45)CC3)CC1)O2`: the XC50 is 718 nM.

Take `CCCC1(NC[C@@H](O)[C@H](Cc2ccccc2)NC(=O)c2cc(NCC)cc(N3CCCCS3(=O)=O)c2)CCCCC1`: the XC50 turned out to be 247 nM.

On to `COc1ccc2nccc([C@@H](O)CN3CCC(NCc4ccc5c(c4)N(C)C(=O)CO5)CC3)c2c1`, for which the XC50 worked out at 745 nM.

`Cc1ccc(Cn2ncc(N3CCC(N)CC3)c(Cl)c2=O)cc1NC(=O)Nc1ccc(-c2ccccc2)cc1` returned an XC50 of 917 nM.

`CCOC(=O)C1=C(C)NC2=C(C(=O)CCC2)C1c1cn(Cc2ccc(Cl)cc2Cl)nc1-c1ccccc1` (stereo not given): the XC50 turned out to be 625 nM.

In turn, `COc1ccc(C(=O)C2CC2CN2CC=C(c3c(C)[nH]c4ccccc34)CC2)cc1` (stereo not given) had an XC50 of 304 nM.

As to `CCCCNC(=O)C(C)NC(=O)c1ccc(O)c(-c2ccc(Cl)c(Cl)c2)c1` (stereo not given), the XC50 came out at 823 nM.

As for `CCN(CCCN1CCCCC1)c1cc(C)nc(Nc2ccc(C)cc2)n1`, the XC50 came out at 411 nM.

The compound `O=C(NCCN1CCCC1)c1ccc(-c2ccc(-c3nc4ccccc4[nH]3)s2)cc1` registered an XC50 of 938 nM.

Take `COc1ccc(CCNCc2ccc3nc(N)c(C)cc3c2)cc1`: the XC50 was 992 nM.

`COc1c(C2CCN(CCCCNC(=O)c3ccc(C)c(-c4ccc(C(F)(F)F)cc4)c3)CC2)ccc2c1CCCC2` displayed an XC50 of 883 nM.

In turn, `CCOc1cc(C)ccc1N1CCN(CCCCNC(=O)c2ccc(NC(=O)c3ccc(Cl)cc3)cc2)CC1` yielded an XC50 of 637 nM.

On to `Cc1cccc2nc(C3CCN(CC4CCN(C(=O)/C=C/c5ccc(Cl)c(Cl)c5)CC4)CC3)[nH]c12`, for which the XC50 came out at 485 nM.

Regarding `N#Cc1ccnc(-c2ccc(CNC3CCN(CC4Cn5c(=O)ccc6ccc(F)c4c65)CC3)cc2)c1` (stereo not given), the XC50 was determined as 1220 nM.

`Cc1cccc(-n2nc(C)c3c2NC(=O)CC3C(=O)c2ccc(Cl)s2)c1` (stereo not given) showed an XC50 of 466 nM.

As to `Nc1nc(N)c2c(ccc3c2ccn3Cc2ccccn2)n1`, the XC50 worked out at 8.31 nM.

For the compound `COc1cc(NC(=O)c2nn(CCCN3CCC(N4CCCC4)CC3)cc2-c2ccc(Cl)c(Cl)c2)cc(OC)c1OC`, the XC50 came to 555 nM.

Take `Cc1cc(=NN=Cc2ccccc2Cl)c2ccccc2[nH]1`: the XC50 was found to be 904 nM.

`c1cc(CNCc2ccc3c(c2)OCO3)cc(-c2cccc(CNc3ccc4ncccc4c3)c2)c1`: the XC50 worked out at 760 nM.

`Cc1cccc(C(=O)Nc2ccnc(N3CCCN(Cc4cccc(O)c4)CC3)c2)c1` had an XC50 of 1210 nM.

Turning to `O=C(Nc1ccccc1)Nc1cccc(-c2ccc(-c3nc4cc(C(F)(F)F)ccc4[nH]3)cc2)c1`, the XC50 turned out to be 231 nM.

Take `CCNc1cc(C(=O)N[C@@H](Cc2ccccc2)[C@H](O)CNC2(CC(C)C)CC2)cc(N2CCCCS2(=O)=O)c1`: the XC50 was determined as 1020 nM.

For the compound `Clc1cc(Br)ccc1-c1ccc(CNCC2CCNCC2)o1`, the XC50 came to 1510 nM.

In turn, `O=C(Cc1cc(=O)oc2cc(O)ccc12)NC1CCC(CN2CCC(c3c[nH]c4ccccc34)CC2)CC1` (stereo not given) came in with an XC50 of 1130 nM.

For the compound `CO/C(=C\C=C\c1cc2cc(Cl)c(Cl)cc2[nH]1)C(=O)NC1CCN(CCNc2ccccc2)CC1`, the XC50 amounted to 258 nM.

`O=C(Nc1cccc(-c2ccc(CN3CCNCC3)cc2)c1)c1cccc(Cl)c1` came in with an XC50 of 1250 nM.

`COc1ccc2nccc(N3CCC(SCCNCc4ccc5c(n4)NC(=O)CO5)C3)c2n1` (stereo not given): the XC50 stood at 801 nM.

For the compound `CCc1ccc(C2CCN(CCCCNC(=O)c3ccc(-c4ccc(C#N)cc4)cc3)CC2)c(OCCO)c1`, the XC50 stood at 938 nM.

Regarding `C=CCNC(=O)C(C)c1ccc2cc(OC)ccc2c1` (stereo not given), the XC50 was found to be 420 nM.

Compound `COc1ccc(C2CCN(CCCCNC(=O)c3ccc(NC(=O)c4ccc(Cl)cc4)cc3)CC2)cc1Cl` registered an XC50 of 843 nM.

Regarding `O=C(/C=C/c1cc(C(F)(F)F)ccc1F)N1CCC(CN2CCC(c3c[nH]c4ccccc34)CC2)CC1`, the XC50 was determined as 994 nM.

In turn, `O=C(Nc1ccccc1)N(Cc1ccccc1-c1cccc(CNCc2ccc3c(c2)OCO3)c1)C1CCN(Cc2ccccc2)CC1` had an XC50 of 108 nM.

Take `Cc1nc2nc(N)nc(N)c2c(C)c1Cc1cccs1`: the XC50 amounted to 777 nM.
